In article PMC9144521 (Viruses, 2022):

Tests used:
adenovirus 5 = test system: adenovirus 5; design: method as in ref 28, 31 = [28]; settings: cited from earlier work
AdV3 = assay: Anti-AdV activity assay (IFA of hexon), secondary screen, AdV3; type: cell-based, Human adenoviruses type 3; settings: for Selective Index AdV3: CC50/EC50, Vero cells; for EC50: 48 h, IFA of hexon, 0.02 to 5 μM
AdV5 = assay: Anti-AdV activity assay (IFA of hexon), secondary screen, AdV5; type: cell-based, Human adenoviruses type 5; settings: for Selective Index AdV5: CC50/EC50, Vero cells; for EC50: 48 h, IFA of hexon, 0.02 to 5 μM
in vitro = settings: African green monkey
Aurora A/B/C = settings: cited from earlier work
Aurora A = test system: Aurora A; design: method as in ref 25 = [25]; settings: cited from earlier work

| EC50 (AdV3; Vero cells) [nM] | EC50 (AdV5; Vero cells) [nM] | Structure (SMILES) | reported inhibition of replication of adenovirus 5 (adenovirus 5) | Selective Index AdV3 (AdV3) | Selective Index AdV5 (AdV5) | CC50 at 48 h (in vitro) [nM] | selectivity for Aurora kinases than p38α, Tyk2, and JNK2 (Aurora A/B/C) [fold] | inhibition of AdV3 (in words) (AdV3; Vero cells) | inhibition of AdV5 (in words) (AdV5; Vero cells) | selectivity for Aurora A than Aurora B (Aurora A) [fold] | CC50 (Vero cells) [nM] | CC50 at 48 h (in vitro; Vero cells) [nM] |
| --- | --- | --- | --- | --- | --- | --- | --- | --- | --- | --- | --- | --- |
| 20 | > 5000 | Cc1csc(-c2nnc(Nc3ccc(Oc4ncccc4-c4ccnc(N)n4)cc3)c3ccccc23)c1 [AMG-900] |  | 226.12 |  | 3690 | > 10 | potently inhibits only AdV3 | but not AdV5 |  |  |  |
| 260 | 590 | COC1(c2sc3c(N4CCOCC4)nc(-c4cnc(N)nc4)nc3c2C)COC1 [GNE-317] |  |  |  |  |  |  |  |  | > 5000 |  |
| 310 | > 5000 | Cl.Cl.O=S(=O)(NCCNC/C=C/c1ccc(Br)cc1)c1cccc2cnccc12 [H 89 2HCl] |  | >15.97 |  |  |  |  |  |  | > 5000 |  |
| 20 | 30 | COc1cccc(-c2cc(F)ccc2[C@H]2Cc3nc(N)nc(C)c3C(=O)N2)n1 [HSP990] |  | 205.19 | 148.47 |  |  |  |  |  | 4310 |  |
| 100 | 970 | O=C(/C=C\n1cnc(-c2cc(C(F)(F)F)cc(C(F)(F)F)c2)n1)N1CC(F)(F)C1 [KPT-276] |  | >50.46 | >5.13 |  |  |  |  |  | > 5000 |  |
| 150 | 610 | O=C(/C=C\n1cnc(-c2cc(C(F)(F)F)cc(C(F)(F)F)c2)n1)NNc1ccccn1 [KPT-335] | inhibit the replication of adenovirus 5 | 12.65 | 3.14 |  |  |  |  |  |  | 1900 |
| 60 | 120 | COc1ccc(-c2cc3c(C)nc(N)nc3n([C@H]3CC[C@H](OCCO)CC3)c2=O)cn1 [PF-04691502] |  | >86.01 | >41.46 |  |  |  |  |  | > 5000 |  |
| 940 | > 5000 | COc1cc(Nc2ncc(F)c(Nc3ccc4c(n3)NC(=O)C(C)(C)O4)n2)cc(OC)c1OC [R406] |  | >5.32 |  |  |  |  |  |  | > 5000 |  |
| 180 | 160 | N#Cc1c(Oc2ccc(F)c(NC(=O)Cc3cccc(C(F)(F)F)c3)c2)ccc2nc(NC(=O)C3CC3)sc12 [TAK-632] |  | 11.15 | 12.3 |  |  |  |  |  | 1990 |  |
| 30 | 80 | CCNC(=O)c1[nH]nc(-c2cc(Cl)c(O)cc2O)c1-c1ccc(OC)cc1 [VER-49009] |  | >186.00 | >60.00 |  |  |  |  |  | > 5000 |  |
| 560 | 1090 | c1cncc(CN2CCC(n3ncc4c(N5CCOCC5)nc(-c5ccc6[nH]ccc6c5)nc43)CC2)c1 [WAY-600] |  | 5.51 | 2.86 |  |  |  |  |  | 3110 |  |
| 60 | 150 | CNC(=O)Nc1ccc(-c2nc(N3CC4CCC(C3)O4)c3cnn(C4CCC5(CC4)OCCO5)c3n2)cc1 [WYE-125132] |  | >89.17 | >32.47 |  |  |  |  |  | > 5000 |  |
| 170 | 480 | CC[C@@H](C)Nc1cc(C(=O)N[C@H]2C[C@H]3CC[C@@H](C2)N3c2ccc(C(=O)C3CC3)cn2)c(C)cc1C(N)=O [XL888] |  | >29.69 | >10.33 |  |  |  |  |  | > 5000 |  |

| Structure (SMILES) | EC50 (AdV3; Vero cells) [nM] | EC50 (AdV5; Vero cells) [nM] | reported inhibition of replication of adenovirus 5 (adenovirus 5) | Selective Index AdV3 (AdV3) | Selective Index AdV5 (AdV5) | CC50 at 48 h (in vitro) [nM] | selectivity for Aurora kinases than p38α, Tyk2, and JNK2 (Aurora A/B/C) [fold] | inhibition of AdV3 (in words) (AdV3; Vero cells) | inhibition of AdV5 (in words) (AdV5; Vero cells) | selectivity for Aurora A than Aurora B (Aurora A) [fold] | CC50 (Vero cells) [nM] | CC50 at 48 h (in vitro; Vero cells) [nM] |
| --- | --- | --- | --- | --- | --- | --- | --- | --- | --- | --- | --- | --- |
| C=CCNC1=C2C[C@@H](C)C[C@H](OC)[C@H](O)[C@@H](C)/C=C(\C)[C@H](OC(N)=O)[C@@H](OC)/C=C\C=C(/C)C(=O)NC(=CC1=O)C2=O [17-AAG] | 500 | > 5000 | inhibit the replication of adenovirus 5 | >9.93 | >0.46 | > 5000 |  |  |  |  |  |  |
| Cc1cc(Nc2cc(N3CCN(C)CC3)nc(/C=C/c3ccccc3)n2)n[nH]1.O=C(O)C(O)C(O)C(=O)O [ENMD-2076 L-(+)-Tartaric acid] | 1350 | 1390 |  |  |  |  |  |  |  | 25 | 4340 |  |
